Assay [1] relates to mucociliary clearance of nasal tissue. Nature of the assay: Nasal spray saccharin transport time (STT) test. Particulars: for mean STT: pooled PAR and NR and across doses 5-80 mg/mL, single dose nasal spray, with outliers, (±SD); for STT mean (± SD): across all cohorts, NR and PAR groups pooled, without outliers (<1 minute or >30 minutes excluded). The format is in vivo, humans. As to the method: The speed with which the saccharin was transported this distance is a measure of mucociliary clearance.
Sixty subjects, 30 healthy non-rhinitic (NR) volunteers and 30 subjects with perennial allergic rhinitis (PAR), participated in a randomized, double-blind, single-center, 2-period crossover study evaluating escalating, single doses of a UP4dC nasal spray delivered as a non-preserved aqueous nasal spray. Each subject received a single dose (2 sprays in each nostril, 140 μL/spray) of UP4dC and placebo (0.9% w/v saline spray) on two treatment days in random order (crossover design). Five cohorts of 12 subjects received five concentration levels of UP4dC (5, 10, 20, 40, and 80 mg/mL) in ascending order. The STT was performed 5-minutes and 300-minutes post-dose on each treatment day on each subject (a saccharin particle was placed in the nose at 5 and 300 minutes post-dose and then time to taste was recorded).
Analyses were carried out excluding those STT values that were either too fast (<1 minute) or too slow (>30 minutes). Both of these scenarios are deemed as errors and are a likely result of the saccharin particle being inappropriately administered.

Assay [2] deals with symptoms of perennial allergic rhinitis (PAR). Nature of the assay: Perennial allergic rhinitis symptom study with nasal spray. It is filed as in vivo, humans. The source says:
This example illustrates the efficacy of a U[…] nasal spray in reducing the symptoms of perennial allergic rhinitis (PAR) in humans. Patients with PAR suffer year-round from symptoms of allergic rhinitis because they are sensitized to allergens that are present in homes and the environment throughout the year, including dust mites, molds, and animal […] (dogs, cats, cockroaches, etc). Patients with PAR experience a constellation of nasal symptoms including nasal stuffiness/congestion, runny nose, post-nasal drip, sneezing and nasal itching. These symptoms were evaluated in pivotal efficacy trials as the total nasal symptom score (TNSS) as well as by evaluating each individual symptom, including the non-nasal symptoms of facial pain/pressure and cough. Patients rated each individual symptom on a scale from 0 (none) to 3 (severe) twice daily, reflecting their symptoms upon awakening (AM) and throughout the day (PM). Fifty-nine subjects with a documented history of PAR participated in a randomized, double-blind, 3-center, parallel-group study. […] Study medication was delivered twice daily as a non-preserved aqueous nasal spray as 2 sprays (100 μL in each spray) in each nostril. […] This was most notable for the 10 mg/ml U[…] group. Comparisons of pooled active versus placebo TNSS scores approached statistical significance for AM scores (p=0.139). Table 3 indicates the symptom and dose combinations that provided statistically significant reductions (p≦0.05) compared with placebo on any day during the 6-day treatment period. Conversely, significant symptom reductions in favor of placebo were observed on one day (PM sneezing, Day 2).

The subject of assay [3] is ocular active anaphylaxis with egg albumin as an antigen. Put plainly: Ocular active anaphylaxis, guinea pig egg albumin model. The format is in vivo, albino guinea pigs. To be noted: FIG. 2; for magnitude of reduction on eyeballs, UP4U versus reference controls: guinea pigs, egg albumin, 2% UP4U, 0.05% levocabastine, 0.025% ketotifen, 0.1% olopatadine eye drops. From the text: The guinea pig model of ocular active anaphylaxis with egg albumin as an antigen, serves as a testing system for anti-inflammatory and anti-allergic drugs (Yamaji, et al., Methods Find. Exp. Clin. Pharmacol. 19(9): 637-43 (1997)). The ocular effects of compounds and vehicle control were investigated using an experimentally-induced ocular active anaphylaxis in the guinea pig. Ten albino guinea pigs per group were sensitized with an intraperitoneal injection of egg albumin, followed 14 days later with a challenge by a single ocular instillation of egg albumin. Four times daily for 3 days and twice on the fourth day (the last one 2 h before challenge), test substances were instilled into the right conjunctival sac of the animals. The immune response was induced by immunization with egg albumin, and the ocular reaction was induced by ocular instillation of egg albumin, thereby causing the release of allergy mediators and ocular edema. Efficacy was evaluated by measuring edema: clinical scores and extravasation of Evans blue dye (blood-eyelids and blood-eyeballs permeability indexes). Comparison was made between the test substances, the test substances vehicle, the reference substance (0.05% levocabastine eye drops—Lévophta®; 0.025% ketotifen eyedrops—Zaditor®; and 0.1% olopatadine eyedrops—Patanol™), and negative control animals (untreated and unchallenged). The model was previously validated (Khosravi, et al., Inflamm. Res. 44(1): 47-54 (1995)).

Assay [4] has as its system compound 48/80 ocular surface type-1 hypersensitivity. Nature of the assay: Ocular Type-1 hypersensitivity in albino rats (topical 48/80 model). The format is in vivo. Particulars: FIG. 1; for magnitude of reduction in vascular leakage and Evans blue extravasation, UP4U versus reference controls: rats, 48/80, 2% UP4U, 0.05% levocabastine, 0.025% ketotifen, 0.1% olopatadine eye drops. As to the method: The rat model of ocular immediate (Type-1) hypersensitivity using topical compound 48/80 was used for testing anti-inflammatory drugs (Feinberg and Stokes, Int. Arch. Allergy Appl. Immunol. 82(3-4): 537-8. (1987)). The effects of levocabastine, ketotifen, and olopatadine, which are three approved drugs for the use of ocular surface inflammation, particularly allergic conjunctivitis, were assessed. UP4U was investigated for its effects on mitigating the clinical signs of compound 48/80 on ocular surface type-1 hypersensitivity. Ten albino rats per group were administered compound or vehicle four times daily for 3 days and twice on the fourth day (the last administration 2 h before challenge with 48/80). Comparison was made between the test substances, the test substances vehicle, the reference substance (0.05% levocabastine eye drops—Lévophta®; 0.025% ketotifen eyedrops—Zaditor®; and 0.1% olopatadine eyedrops—Patanol™), and negative control animals (untreated and unchallenged). Eye drops were instilled into the right conjunctival sac of each animal with test substances. […] The formulated compounds or vehicle were allowed to gradually run from the top to the bottom of the ocular surface. Efficacy was evaluated by measuring edema: clinical scores and extravasation of Evans blue dye (blood-eyelids and blood-eyeballs permeability indexes). The model has been previously validated (Khosravi, et al., Inflamm. Res. 44(1): 47-54 (1995)).

The mark [5] stands for this setting: 5 mg/mL, 6-day treatment period.
Where [6] appears, read: 10 mg/mL, 6-day treatment period.
The mark [7] stands for this setting: 40 mg/mL, 6-day treatment period.

Regarding `Nc1ccn([C@H]2C[C@H](O)[C@@H](COP(=O)(O)OP(=O)(O)OP(=O)(O)OP(=O)(O)OC[C@H]3O[C@@H](n4ccc(=O)[nH]c4=O)[C@H](O)[C@@H]3O)O2)c(=O)n1` [UP4dC, P^1-(2′-deoxycytidine 5′)-P^4-(uridine 5′-)tetraphosphate], the “mean STT” value in assay [1] (5-hour (300-minute) post-dose assessment) is given as 9.58 (±10.30) minutes; in assay [1] (5-minute post-dose assessment) it was 7.04 (±6.06) minutes. Besides, the “STT mean (± SD)” value in assay [1] (5 minute) is reported as 6.89 (5.36) minutes; in assay [1] (300 minute), 8.41 (5.79) minutes. Further, in assay [1] (UP4dC nasal spray, single dose, humans), the “time elapsed before the saccharin was tasted compared to placebo” value is “shorten”. Besides, the “days with statistically significant reductions (p≦0.05) compared with placebo: Nasal blockage/stuffiness” value was “AM-Day 4” in assay [2] (setting [5]) and “AM-Day 5” in assay [2] (setting [6]). Further, the “days with statistically significant reductions (p≦0.05) compared with placebo: Post-nasal drip” value in assay [2] (setting [5]) is “AM-Days 4 and 6”; in assay [2] (setting [6]), “AM-Days 5 and 6”. In assay [2] (setting [6]), the “days with statistically significant reductions (p≦0.05) compared with placebo: Rhinorrhea” value is listed as “PM-Day 5”. In addition, the “days with statistically significant reductions (p≦0.05) compared with placebo: Total Symptom Score” value in assay [2] (setting [6]) was “AM-Days 5 and 6”; in assay [2] (setting [7]) it was “PM-Day 5”. The “days with statistically significant reductions (p≦0.05) compared with placebo: Itching” value in assay [2] (setting [7]) was “AM-Day 3”. For the same compound, the “days with statistically significant reductions (p≦0.05) compared with placebo: TNSS” value in assay [2] (setting [7]) is reported as “AM-Day 3”. The “change from the placebo run-in period in TNSS averaged over the entire 6-day treatment period” value in assay [2] (AM (0–15 scale), 5 mg/mL nasal spray twice daily) is −0.96 (2.08); in assay [2] (AM (0–15 scale), 10 mg/mL nasal spray twice daily) it was −1.20 (2.00); in assay [2] (AM (0–15 scale), 40 mg/mL nasal spray twice daily) it was −1.14 (2.02); in assay [2] (AM + PM (0–30 scale), 5 mg/mL nasal spray twice daily), −2.02 (4.31); in assay [2] (AM + PM (0–30 scale), 10 mg/mL nasal spray twice daily) it was −2.59 (4.50); in assay [2] (AM + PM (0–30 scale), 40 mg/mL nasal spray twice daily), −2.09 (3.99). In addition, the “change from the placebo run-in period in TNSS averaged over the entire 6-day treatment period” value was −0.94 (2.07) in assay [2] (PM (0–15 scale), 5 mg/mL nasal spray twice daily); −1.26 (2.46) in assay [2] (PM (0–15 scale), 10 mg/mL nasal spray twice daily); −1.01 (2.55) in assay [2] (PM (0–15 scale), 40 mg/mL nasal spray twice daily). In assay [2] (active treatment groups 5, 10, 40 mg/mL, not statistically significant versus placebo), the “reductions in TNSS compared with placebo for AM, PM, and AM+PM analyses” value is given as “consistently greater reductions”.

For `C[C@@H]1CN([C@H]2CC[C@](C#N)(c3ccc(F)cc3)CC2)CC[C@]1(C(=O)O)c1ccccc1` [levocabastine, reference compound], in assay [3], the “magnitude of reduction on eyeballs, UP4U versus reference controls” value (“magnitude of reduction on eyeballs” below) is reported as “comparable”. Also, the “magnitude of reduction in vascular leakage and Evans blue extravasation, UP4U versus reference controls” value in assay [4] is recorded as “comparable”.

Take `CN1CCC(=C2c3ccccc3CC(=O)c3sccc32)CC1` [ketotifen, reference compound]: the “magnitude of reduction on eyeballs” value in assay [3] is given as “comparable”. Also, the “magnitude of reduction in vascular leakage and Evans blue extravasation, UP4U versus reference controls” value in assay [4] was “comparable”.

Turning to `CN(C)CC/C=C1/c2ccccc2COc2ccc(CC(=O)O)cc21` [olopatadine, reference compound], in assay [3], the “magnitude of reduction on eyeballs” value is given as “comparable”. For the same compound, the “magnitude of reduction in vascular leakage and Evans blue extravasation, UP4U versus reference controls” value in assay [4] is recorded as “comparable”.

Consider `O=c1ccn([C@@H]2O[C@H](COP(=O)(O)OP(=O)(O)OP(=O)(O)OP(=O)(O)OC[C@H]3O[C@@H](n4ccc(=O)[nH]c4=O)[C@H](O)[C@@H]3O)[C@@H](O)[C@H]2O)c(=O)[nH]1` [UP4U, P^1,P^4-di(uridine 5′-)tetraphosphate], for which, in assay [3] (guinea pigs challenged with egg albumin, 2% UP4U eye drops four times daily for 3 days and twice on the fourth day), the “vascular leakage and Evans blue extravasation on eyeballs” value is reported as “reduced”. Besides, the “magnitude of reduction on eyeballs” value in assay [3] is on record as “comparable”. Also, the “vascular leakage and Evans blue extravasation on eyelids and eyeballs” value in assay [4] (rats treated with 48/80 on the ocular surface, 2% UP4U eye drops four times daily for 3 days and twice on the fourth day) is on record as “reduced”. Moreover, in assay [4], the “magnitude of reduction in vascular leakage and Evans blue extravasation, UP4U versus reference controls” value is “comparable”.
